In patent publication US20220062240A1, “METHODS OF TREATING CANCER USING A CLK INHIBITOR” (BioSplice Therapeutics, Inc., priority 2018, published 2022):
Like-named read-outs stand apart in the source and are kept apart here.

How the values were obtained:
HCC1599 = test: CellTiter-Glo Viability Assay, breast cancer; type: cell-based; conditions: Homo sapiens, HCC1599, 96 h
T47D = test: CellTiter-Glo Viability Assay, breast cancer; type: cell-based; conditions: Homo sapiens, 96 h
MCF7 = test: CellTiter-Glo Viability Assay, breast cancer; type: cell-based; conditions: Homo sapiens, MCF7, 96 h
DU4475 = test: CellTiter-Glo Viability Assay, breast cancer; type: cell-based; conditions: Homo sapiens, DU-4475, 96 h
CAMA1 = test: CellTiter-Glo Viability Assay, breast cancer; type: cell-based; conditions: Homo sapiens, CAMA-1, 96 h
MDA-MB-231-Luc = test: CellTiter-Glo Viability Assay, breast cancer; type: cell-based; conditions: Homo sapiens, 96 h
ZR-75-1 = test: CellTiter-Glo Viability Assay, breast cancer; type: cell-based; conditions: Homo sapiens, ZR-75-1, 96 h
BT-549 = test: CellTiter-Glo Viability Assay, breast cancer; type: cell-based; conditions: Homo sapiens, BT-549, 96 h
[1] = test system: liver cancer (3 cell lines); test: CellTiter-Glo Viability Assay, liver cancer; type: cell-based; conditions: Homo sapiens
[2] = test system: prostate cancer (5 cell lines); test: CellTiter-Glo Viability Assay, prostate cancer; type: cell-based; conditions: Homo sapiens
[3] = test system: colorectal cancer (6 cell lines); test: CellTiter-Glo Viability Assay, colorectal cancer; type: cell-based; conditions: Homo sapiens
[4] = test system: haematopoietic & lymphoid tumors (13 cell lines); test: CellTiter-Glo Viability Assay, haematopoietic & lymphoid tumors; type: cell-based; conditions: Homo sapiens
[5] = test system: ovarian cancer (4 cell lines); test: CellTiter-Glo Viability Assay, ovarian cancer; type: cell-based; conditions: Homo sapiens
[6] = test system: pancreatic cancer (8 cell lines); test: CellTiter-Glo Viability Assay, pancreatic cancer; type: cell-based; conditions: Homo sapiens
CLK3 = CLK3 (Homo sapiens, UniProt P49761); test: CLK3 kinase activity assay (Z-lyte, Ser/Thr 18 peptide)
[7] = test system: lung cancer (4 cell lines); test: CellTiter-Glo Viability Assay, lung cancer; type: cell-based; conditions: Homo sapiens
all 50 cell lines = test: CellTiter-Glo Viability Assay, average across all cell lines; type: cell-based; conditions: Homo sapiens, read-out: average EC50 for inhibition of cancer cell proliferation
Outline: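 4-day proliferation, 37° C/5% CO2; 300-3,000 cells/well; compound in duplicate vs DMSO controls. Panel: breast, colorectal, heme/lymphoid, liver, lung, ovarian, pancreatic, prostate lines. Read-out: CellTiter-Glo ATP luminescence, EC50 from dose-response.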

Chain of CLK3 (P49761 whole entry): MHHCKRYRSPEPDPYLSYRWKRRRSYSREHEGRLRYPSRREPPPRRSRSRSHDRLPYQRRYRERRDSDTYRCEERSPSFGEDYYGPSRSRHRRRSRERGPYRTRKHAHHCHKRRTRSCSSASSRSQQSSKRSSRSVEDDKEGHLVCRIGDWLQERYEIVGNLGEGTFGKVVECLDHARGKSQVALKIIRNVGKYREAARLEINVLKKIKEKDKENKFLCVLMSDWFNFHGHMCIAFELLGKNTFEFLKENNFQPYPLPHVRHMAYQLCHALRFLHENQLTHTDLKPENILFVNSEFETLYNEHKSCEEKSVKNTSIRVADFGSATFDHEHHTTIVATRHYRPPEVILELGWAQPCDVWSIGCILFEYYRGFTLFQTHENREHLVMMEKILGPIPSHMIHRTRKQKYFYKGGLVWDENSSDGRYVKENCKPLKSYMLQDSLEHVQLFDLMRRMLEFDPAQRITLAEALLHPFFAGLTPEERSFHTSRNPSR

Molecule `CN1CCN(C(=O)C(C)(C)c2ccc(C(=O)Nc3cn4cc(-c5ccncc5)ccc4n3)cc2)CC1` [Compound 27] has an EC50 (HCC1599) of 8.04 µM, an EC50 (T47D) of 4.1 µM and an EC50 (MCF7) of 3.97 µM. For the same molecule, the EC50 (DU4475) was 1.99 µM, the EC50 (CAMA1) was 4.25 µM and the EC50 (MDA-MB-231-Luc) was 3.65 µM. It also gave an EC50 (ZR-75-1) of 3.91 µM, an EC50 (BT-549) of 3.61 µM and an EC50 ([1]; HepG2, read-out: Liver cancer, EC50 HEPG2) of 3.34 µM. It also gave an EC50 ([1]; PLC-PRF-5, read-out: Liver cancer, EC50 PLC/PRF/5) of 4.02 µM, an EC50 ([1]; SNU-398, read-out: Liver cancer, EC50 SNU398) of 0.917 µM and an EC50 ([2]; 22Rv1, read-out: Prostate cancer EC50 22Rv1) of 2.91 µM. It also gave an EC50 ([2]; DU-145, read-out: Prostate cancer EC50 Du-145) of 3.39 µM, an EC50 ([2]; LNCaP-Clone-FGC, read-out: Prostate cancer EC50 LNCap clone FGC) of 4.18 µM and an EC50 ([2]; PC-3, read-out: Prostate cancer EC50 PC3) of 2.58 µM. The EC50 ([2]; VCaP, read-out: Prostate cancer EC50 VCaP (Sigma)) was 7.47 µM, the EC50 ([3]; DLD-1, read-out: Colorectal cancer, EC50 (μM) DLD-1) was 1.65 µM and the EC50 ([3]; HCT-116, read-out: Colorectal cancer, EC50 (μM) HCT116) was 1.08 µM. The EC50 ([3]; HT-29, read-out: Colorectal cancer, EC50 (μM) HT29) was 2.38 µM, the EC50 ([3]; SW48, read-out: Colorectal cancer, EC50 (μM) SW48) was 0.675 µM and the EC50 ([3]; SW480, read-out: Colorectal cancer, EC50 (μM) SW480) was 1.08 µM. For the same molecule, the EC50 ([3]; SW-620, read-out: Colorectal cancer, EC50 (μM) SW620) was 0.97 µM, the EC50 ([4]; DND41, read-out: Haematopoietic & Lymphoid tumors, EC50 (μM) DND-41) was 1.78 µM and the EC50 ([4]; HL-60, read-out: Haematopoietic & Lymphoid tumors, EC50 (μM) HL-60) was 4.98 µM. For the same molecule, the EC50 ([4]; JM1, read-out: Haematopoietic & Lymphoid tumors, EC50 (μM) JM1) was 0.982 µM, the EC50 ([4]; JeKo-1, read-out: Haematopoietic & Lymphoid tumors, EC50 (μM) JeKo-1) was 1.22 µM and the EC50 ([4]; Jurkat, read-out: Haematopoietic & Lymphoid tumors, EC50 (μM) JURKAT, Clone E6-1) was 3.85 µM. It also gave an EC50 ([4]; Kasumi 1, read-out: Haematopoietic & Lymphoid tumors, EC50 (μM) KASUMI-1) of 2.1 µM, an EC50 ([4]; MOLT-4, read-out: Haematopoietic & Lymphoid tumors, EC50 (μM) MOLT-4) of 2.39 µM and an EC50 ([4]; MV4-11, read-out: Haematopoietic & Lymphoid tumors, EC50 (μM) MV-4-11) of 0.275 µM. For the same molecule, the EC50 ([4]; Rec1, read-out: Haematopoietic & Lymphoid tumors, EC50 (μM) REC-1) was 1 µM, the EC50 ([4]; SU-DHL-4, read-out: Haematopoietic & Lymphoid tumors, EC50 (μM) SUDHL4) was 2.54 µM and the EC50 ([4]; TF-1, read-out: Haematopoietic & Lymphoid tumors, EC50 (μM) TF-1) was 3.41 µM. It also gave an EC50 ([4]; Toledo, read-out: Haematopoietic & Lymphoid tumors, EC50 (μM) TOLEDO) of 1.1 µM, an EC50 ([4]; read-out: Haematopoietic & Lymphoid tumors, EC50 (μM) Loucy) of 1.49 µM and an EC50 ([5]; OV-90, read-out: Ovarian cancer, EC50 (μM) OV-90) of 3.87 µM. For the same molecule, the EC50 ([5]; OVCAR-3, read-out: Ovarian cancer, EC50 (μM) OVCAR-3) was 1.31 µM, the EC50 ([5]; PA-1, read-out: Ovarian cancer, EC50 (μM) PA1) was 1.58 µM and the EC50 ([5]; TOV112D, read-out: Ovarian cancer, EC50 (μM) TOV-112D) was 2.32 µM. It also gave an EC50 ([6]; BXPC-3, read-out: Pancreatic cancer, EC50 BxPC3) of 4.61 µM, an EC50 ([6]; CAPAN-1, read-out: Pancreatic cancer, EC50 Capan1) of 3.47 µM and an EC50 ([6]; Capan-2, read-out: Pancreatic cancer, EC50 Capan2) of 3.77 µM. It also gave an EC50 ([6]; MIA PaCa-2, read-out: Pancreatic cancer, EC50 MIA PaCa-2) of 1.44 µM, an EC50 ([6]; PANC-1, read-out: Pancreatic cancer, EC50 PANC-1) of 4.64 µM and an EC50 ([6]; Panc 05.04, read-out: Pancreatic cancer, EC50 PANC 05.04) of 3.64 µM. The EC50 ([6]; read-out: Pancreatic cancer, EC50 UPAFII) was 1.87 µM, the EC50 (CLK3) was 0.035 µM and the EC50 ([7]; A-427, read-out: Lung cancer, EC50 (μM) A427) was 3.08 µM. It also gave an EC50 ([7]; HCC78, read-out: Lung cancer, EC50 (μM) HCC-78) of 3.72 µM, an EC50 ([7]; NCI-H460, read-out: Lung cancer, EC50 (μM) NCI-H460) of 3.54 µM and an EC50 ([7]; NCI-H522, read-out: Lung cancer, EC50 (μM) NCI-H522) of 1.99 µM. The EC50 (all 50 cell lines) was 2.84 µM.
